According to US20250084078A1, “FUSED RING-SUBSTITUTED SIX-MEMBERED HETEROCYCLIC COMPOUND, AND PREPARATION METHOD THEREFOR AND USE THEREOF” (GENFLEFT THERAPEUTICS (SHANGHAI) INC., priority 2022, published 2025):

target: HPK1 (Homo sapiens, UniProt Q92918); assay: SLP76 phosphorylation assay (intracellular HPK1 inhibitory activity, p-SLP76 S376 ELISA in Jurkat cells); conditions: p-SLP76 IC50, Jurkat, Clone E6-1 cells; 1 h compound pre-incubation; anti-CD3 beads stimulation 20 min; Phospho-SLP-76 (Ser376) ELISA
Sequence (Q92918 whole entry): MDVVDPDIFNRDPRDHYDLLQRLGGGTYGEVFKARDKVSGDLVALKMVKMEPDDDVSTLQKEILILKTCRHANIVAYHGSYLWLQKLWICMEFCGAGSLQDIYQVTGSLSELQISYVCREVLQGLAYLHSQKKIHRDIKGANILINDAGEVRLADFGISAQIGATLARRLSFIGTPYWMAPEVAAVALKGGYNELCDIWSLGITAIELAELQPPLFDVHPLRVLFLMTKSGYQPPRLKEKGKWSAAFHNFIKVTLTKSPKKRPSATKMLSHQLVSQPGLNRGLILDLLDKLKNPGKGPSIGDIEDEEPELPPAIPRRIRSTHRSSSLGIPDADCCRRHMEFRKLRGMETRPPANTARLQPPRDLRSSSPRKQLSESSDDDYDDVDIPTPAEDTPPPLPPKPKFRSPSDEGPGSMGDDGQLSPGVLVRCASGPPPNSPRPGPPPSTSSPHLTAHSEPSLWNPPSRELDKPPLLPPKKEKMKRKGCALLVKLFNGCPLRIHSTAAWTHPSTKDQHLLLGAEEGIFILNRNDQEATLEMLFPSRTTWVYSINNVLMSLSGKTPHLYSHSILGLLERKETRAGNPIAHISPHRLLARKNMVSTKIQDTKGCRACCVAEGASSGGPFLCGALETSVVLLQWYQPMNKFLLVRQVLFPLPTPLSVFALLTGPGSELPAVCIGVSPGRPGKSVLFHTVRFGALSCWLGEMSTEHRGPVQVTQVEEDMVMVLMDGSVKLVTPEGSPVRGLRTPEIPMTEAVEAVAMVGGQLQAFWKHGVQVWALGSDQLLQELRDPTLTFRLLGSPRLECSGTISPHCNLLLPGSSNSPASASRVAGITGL

Compound | IC50
C=Cc1c[nH]c2ncc(-c3cc4c(c([C@@H]5COCCN5)c3)CN(C(=O)C(C)(C)O)CC4)cc12 [Compound Z508, (R)-2-hydroxy-2-methyl-1-(8-(morpholin-3-yl)-6-(3-vinyl-1H-pyrrolo[2,3-b]pyridin-5-yl)-3,4-dihydroisoquinolin-2(1H)-yl)propan-1-one] | 304 nM
Cc1c(F)[nH]c2ncc(-c3cc4c(c([C@@H]5COCCN5)c3)CN(C(=O)C(C)(C)O)CC4)cc12 [Compound Z510, (R)-1-(6-(2-fluoro-3-methyl-1H-pyrrolo[2,3-b]pyridin-5-yl)-8-(morpholin-3-yl)-3,4-tetrahydroisoquinolin-2(1H)-yl)-2-hydroxy-2-methylpropan-1-one] | 283 nM
CCc1c(Cl)[nH]c2ncc(-c3cc4c(c([C@@H]5COCCN5)c3)CN(C(=O)N3CC5CCC(C3)O5)CC4)cc12 [Compound Z514, (8-oxo-3-azabicyclo[3.2.1]octane-3-yl)(6-(2-chloro-3-ethyl-1H-pyrrolo[2,3-b]pyridin-5-yl)-8-((R)-morpholin-3-yl)-3,4-dihydroisoquinolin-2(1H)-yl)methanone] | 134 nM
N#Cc1c[nH]c2ncc(-c3cc4c(c([C@@H]5COCCN5)c3)CN(C(=O)N3CC5CCC(C3)O5)CC4)cc12 [Compound Z515, 5-(2-(8-oxa-3-azabicyclo[3.2.1]octane-3-carbonyl)-8-((R)-morpholin-3-yl)-1,2,3,4-tetrahydroisoquinolin-6-yl)-1H-pyrrolo[2,3-b]pyridine-3-carbonitrile] | 173 nM
Cc1c[nH]c2ncc(-c3cc4c(c([C@@H]5COCCN5)c3)CN(C(=O)N3CC5CC(C3)O5)CC4)cc12 [Compound Z516, (6-oxa-3-azabicyclo[3.1.1]heptan-3-yl)-(6-(3-methyl-1H-pyrrolo[2,3-b]pyridin-5-yl)-8((R)-morpholin-3-yl)-3,4-dihydroisoquinolin-2(1H)-yl)methanone] | 161 nM
Cc1c[nH]c2ncc(-c3cc4c(c([C@@H]5COCCN5)c3)CN(C(=O)N3C[C@@H](C)O[C@@H](C)C3)CC4)cc12 [Compound Z519, ((2R,6S)-2,6-dimethylmorpholine)(6-(3-methyl-1H-pyrrolo[2,3-b]pyridin-5-yl)-8-((R)-morpholin-3-yl)-3,4-dihydroisoquinolin-2-1H-yl)methanone] | 197 nM
O=C(N1CCc2cc(-c3cnc4[nH]cc(F)c4n3)cc([C@@H]3COCCN3)c2C1)N1CC2CCC(C1)O2 [Compound Z522, (8-oxa-3-azabicyclo[3.2.1]octan-3-yl)(6-(7-fluoro-5H-pyrrolo[2,3-b]pyrazin-2-yl)-8-((R)-morpholin-3-yl)-3,4-dihydroisoquinolin-2(1H)-yl)methanone] | 110 nM
O=C(N1CCOCC1)N1CCc2cc(-c3cnc4[nH]cc(Cl)c4n3)cc([C@@H]3COCCN3)c2C1 [Compound Z527, (R)-(6-(7-chloro-5H-pyrrolo[2,3-b]pyrazin-2-yl)-8-(morpholin-3-yl)-3,4-dihydroisoquinolin-2(1H)-yl)(morpholino)methanone] | 164 nM
Cc1cc(C(=O)N2CCc3cc(-c4cnc5[nH]cc(Cl)c5c4)cc([C@@H]4COCCN4)c3C2)nc(C)n1 [Compound Z531, (R)-(6-(3-chloro-1H-pyrrolo[2,3-b]pyridin-5-yl)-8-(morpholin-3-yl)-3,4-dihydroisoquinolin-2(1H)-yl)(2,6-dimethylpyrimidin-4-yl)methanone] | 385 nM
Cc1ncc(C(=O)N2CCc3cc(-c4cnc5[nH]cc(Cl)c5c4)cc([C@@H]4COCCN4)c3C2)cn1 [Compound Z532, (R)-(6-(3-50 chloro-1H-pyrrolo[2,3-b]pyridin-5-yl)-8-(morpholin-3-yl)-3,4-dihydroisoquinolin-2(1H)-yl)(2-methylpyrimidin-5-yl)methanone] | 394 nM
CCc1c[nH]c2ncc(-c3cc4c(c([C@@H]5COCCN5)c3)CN(C(=O)c3cnc(C)nc3)CC4)nc12 [Compound Z533, (R)-(6-(7-ethyl-5H-pyrrolo[2,3-b]pyrazin-2-yl)-8-(morpholin-3-yl)-3,4-dihydroisoquinolin-2(1H)-yl)(2-methylpyrimidin-5-yl)methanone] | 229 nM
Cc1c[nH]c2ncc(-c3cc4c(c([C@@H]5COCCN5)c3)CN(CC3(O)CCOCC3)CC4)cc12 [Compound Z538, (R)-4-((6-(3-methyl-1H-pyrrolo[2,3-b]pyridin-5-yl)-8-(morpholin-3-yl)-3,4-dihydroisoquinolin-2(1H)-yl)methyl)tetrahydro-2H-pyran-4-ol] | 1050 nM
CCc1c[nH]c2ncc(-c3cc4c(c([C@@H]5COCCN5)c3)CN(C(=O)C(C)(C)O)CC4)nc12 [Compound Z540, (R)-1-(6-(7-ethyl-5H-pyrrolo[2,3-b]pyrazin-2-yl)-8-(morpholin-3-yl)-3,4-dihydroisoquinolin-2(1H)-yl)-2-hydroxy-2-methylpropan-1-one] | 524 nM
O=C(C1CCOCC1)N1CCc2cc(-c3cnc4[nH]cc(Cl)c4c3)cc([C@@H]3COCCN3)c2C1 [Compound Z543, (R)-[6-(3-chloro-1H-pyrrolo[2,3-b]pyridin-5-yl)-8-(morpholin-3-yl)-3,4-dihydroisoquinolin-2(1H)-yl](tetrahydro-2H-pyran-4-yl)methanone] | 236 nM
Cc1cc(-c2c[nH]c3ncc(-c4cc5c(c([C@@H]6COCCN6)c4)CN(C(=O)C(C)(C)O)CC5)cc23)c(C)cn1 [Compound Z545, (R)-1-(6-(3-(2,5-dimethylpyridin-4-yl)-1H-pyrrolo[2,3-b]pyridin-5-yl)-8-(morpholin-3-yl)-3,4-dihydroisoquinolin-2(1H)-yl)-2-hydroxy-2-methylpropan-1-one] | 560 nM
O=C(N1CCc2cc(-c3cnc4[nH]cc(Cl)c4n3)cc([C@@H]3COCCN3)c2C1)N1CC2CCC1CO2 (stereo partly drawn) [Compound Z550, (2-oxa-5-azabicyclo[2.2.2]octan-5-yl)(6-(7-chloro-5H-pyrrolo[2,3-b]pyrazin-2-yl)-8-((R)-morpholin-3-yl)-3,4-dihydroisoquinolin-2(1H)-yl)methanone] | 117 nM
Cc1c[nH]c2ncc(-c3cc4c(c([C@@H]5COCCN5)c3)CN(C(=O)N3CC5CCC(C3)C5O)CC4)cc12 (stereo partly drawn) [Compound Z551, (8-hydroxy-3-azabicyclo[3.2.1]octan-3-yl)(6-(3-methyl-1H-pyrrolo[2,3-b]pyridin-5-yl)-8-((R)-morpholin-3-yl)-3,4-dihydroisoquinolin-2(1H)-yl)methanone] | 498 nM
O=C(N1CCC(O)CC1)N1CCc2cc(-c3cnc4[nH]cc(Cl)c4c3)cc([C@@H]3COCCN3)c2C1 [Compound Z555, (R)-(6-(3-chloro-1H-pyrrolo[2,3-b]pyridin-5-yl)-8-(morpholin-3-yl)-3,4-dihydroisoquinolin-2(1H)-yl)(4-hydroxypiperidin-1-yl)methanone] | 481 nM
Cc1c[nH]c2ncc(-c3cc4c(c([C@@H]5COCCN5)c3)CN(C(=O)N3CCC(O)CC3)CC4)cc12 [Compound Z556, (R)-(4-hydroxypiperidin-1-yl)(6-(3-methyl-1H-pyrrolo[2,3-b]pyridin-5-yl)-8-(morpholin-3-yl)-3,4-dihydroisoquinolin-2(1H)-yl)methanone] | 962 nM
Cc1c[nH]c2ncc(-c3cc4c(c([C@@H]5COCCN5)c3)CN(C(=O)N3CCC(O)C3)CC4)cc12 (stereo partly drawn) [Compound Z558, (3-hydroxypyrrolidin-1-yl)(6-(3-methyl-1H-pyrrolo[2,3-b]pyridin-5-yl)-8-((R)-morpholin-3-yl)-3,4-dihydroisoquinolin-2(1H)-yl)methanone] | 936 nM
Cc1c[nH]c2ncc(-c3cc4c(c([C@@H]5COCCN5)c3)CN(C(=O)N3CCOC5CC53)CC4)cc12 (stereo partly drawn) [Compound Z562, (2-oxa-5-azabicyclo[4.1.0]heptan-5-yl)(6-(3-methyl-1H-pyrrolo[2,3-b]pyridin-5-yl)-8-((R)-morpholin-3-yl)-3,4-dihydroisoquinolin-2(1H)-yl)methanone] | 147 nM
Cc1c[nH]c2ncc(-c3cc4c(c([C@@H]5COCCN5)c3)CN(C(=O)N3CC5(CCOCC5)C3)CC4)cc12 [Compound Z563, (R)-(6-(3-methyl-1H-pyrrolo[2,3-b]pyridin-5-yl)-8-(morpholin-3-yl)-3,4-dihydroisoquinolin-2(1H)-yl)(7-oxa-2-azaspiro[3.5]nonan-2-yl)methanone] | 174 nM
Cc1c[nH]c2ncc(-c3cc4c(c([C@@H]5COCCN5)c3)CN(C(=O)N3CCC5(CCOCC5)C3)CC4)cc12 [Compound Z565, (R)-(6-(3-methyl-1H-pyrrolo[2,3-b]pyridin-5-yl)-8-(morpholin-3-yl)-3,4-dihydroisoquinolin-2(1H)-yl)(8-oxa-2-azaspiro[4.5]decan-2-yl)methanone] | 245 nM
CCc1c[nH]c2ncc(-c3cc4c(c([C@@H]5COCCN5)c3)CN(C(=O)c3cnc(C)nc3)CC4)cc12 [Compound Z567, (R)-(6-(3-ethyl-1H-pyrrolo[2,3-b]pyridin-5-yl)-8-(morpholin-3-yl)-3,4-dihydroisoquinolin-2(1H)-yl)(2-methylpyrimidin-5-yl)methanone] | 125 nM
CC1(C)CC(O)CN1C(=O)N1CCc2cc(-c3cnc4[nH]cc(Cl)c4n3)cc([C@@H]3COCCN3)c2C1 (stereo partly drawn) [Compound Z569, (6-(7-chloro-5H-pyrrolo[2,3-b]pyrazin-2-yl)-8-((R)-morpholin-3-yl)-3,4-dihydroisoquinolin-2(1H)-yl)(4-hydroxy-2,2-dimethylpyrrolidin-1-yl)methanone] | 154 nM
C[C@H]1COCCN1C(=O)N1CCc2cc(-c3cnc4[nH]cc(Cl)c4n3)cc([C@@H]3COCCN3)c2C1 [Compound Z573] | 122 nM
CN1C2CCC1CN(C(=O)N1CCc3cc(-c4cnc5[nH]cc(Cl)c5n4)cc([C@@H]4COCCN4)c3C1)C2 [Compound Z575, (6-(7-chloro-5H-pyrrolo[2,3-b]pyrazin-2-yl)-8-((R)-morpholin-3-yl)-3,4-dihydroisoquinolin-2(1H)-yl)(8-methyl-3,8-diazabicyclo[3.2.1]octan-3-yl)methanone] | 420 nM
COc1c[nH]c2ncc(-c3cc4c(c([C@@H]5COCCN5)c3)CN(C(=O)C(C)(C)O)CC4)cc12 [Compound Z576, (R)-2-hydroxy-1-(6-(3-methoxy-1H-pyrrolo[2,3-b]pyridin-5-yl)-8-(morpholin-3-yl)-3,4-dihydroisoquinolin-2(1H)-yl)-2-methylpropan-1-one] | 188 nM
